Laboratory results as given in patent publication US9868705B2, “Tetra-aryl cyclobutane inhibitors of androgen receptor action for the treatment of hormone refractory cancer” (The Board of Trustees of the University of Illinois, priority 2013, dated 2018).
Substitutions are numbered along the chain they refer to.

Experiments:
T877A (LNCaP) AR = molecular target: T1, T877A (LNCaP) AR (Homo sapiens, UniProt P10275, T878A); assay: MMTV-luciferase transcription assay in CV-1 cells, T877A AR; assay type: cell-based; conditions: for MMTV transcription assay in CV-1 cells T877A (IC50 / inhibition) / IC50: T877A AR; for MMTV transcription assay in CV-1 cells T877A (IC50 / inhibition): values given as powers of ten without unit, or in words; for AR antagonism, potency in words (structure-activity discussion): MMTV transcription assay in CV-1 cells, compared with 1; for IC50: values given in μM, read-out: MMTV transcription assay in CV-1 cells T877A (IC50)
T1 construct: expressed in transfected cells; host or cells: CV-1
T1 sequence (P10275 1-920 T878A): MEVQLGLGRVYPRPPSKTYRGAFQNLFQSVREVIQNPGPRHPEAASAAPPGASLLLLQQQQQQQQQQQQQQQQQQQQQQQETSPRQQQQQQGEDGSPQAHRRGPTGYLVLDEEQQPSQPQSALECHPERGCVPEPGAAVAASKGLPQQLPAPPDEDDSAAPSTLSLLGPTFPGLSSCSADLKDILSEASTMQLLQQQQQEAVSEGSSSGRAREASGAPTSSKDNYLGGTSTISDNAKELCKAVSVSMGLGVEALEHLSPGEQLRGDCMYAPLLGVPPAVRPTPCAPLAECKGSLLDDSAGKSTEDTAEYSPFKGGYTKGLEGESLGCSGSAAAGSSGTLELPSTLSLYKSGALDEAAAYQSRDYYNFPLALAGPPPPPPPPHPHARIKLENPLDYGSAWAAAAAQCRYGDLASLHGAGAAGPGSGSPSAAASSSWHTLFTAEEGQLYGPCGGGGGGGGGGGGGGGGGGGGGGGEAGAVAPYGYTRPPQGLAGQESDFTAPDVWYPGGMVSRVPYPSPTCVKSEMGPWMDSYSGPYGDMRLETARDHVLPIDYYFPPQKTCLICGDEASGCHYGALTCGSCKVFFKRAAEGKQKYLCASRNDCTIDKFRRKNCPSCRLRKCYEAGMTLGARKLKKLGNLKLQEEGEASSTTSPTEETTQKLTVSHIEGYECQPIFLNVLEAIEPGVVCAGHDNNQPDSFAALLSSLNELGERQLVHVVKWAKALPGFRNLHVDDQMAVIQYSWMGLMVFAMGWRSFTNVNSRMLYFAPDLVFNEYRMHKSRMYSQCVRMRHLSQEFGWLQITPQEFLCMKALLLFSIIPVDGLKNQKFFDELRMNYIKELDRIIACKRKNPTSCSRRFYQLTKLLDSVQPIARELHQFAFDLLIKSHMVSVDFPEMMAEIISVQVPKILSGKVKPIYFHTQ
Text: (§1) These compounds were screened using an AR-responsive MMTV transcription assay in CV-1 cells, utilizing both wild type and T877A (LNCaP) AR. […]

wild type AR = molecular target: T2, wild type AR (Homo sapiens, UniProt P10275); assay: MMTV-luciferase transcription assay in CV-1 cells, wild type AR; assay type: cell-based; conditions: wild type AR; for MMTV transcription assay in CV-1 cells WT (IC50 / inhibition): values given as powers of ten without unit, or in words
T2 construct: expressed in transfected cells; host or cells: CV-1
T2 sequence (P10275 1-920): T1 sequence (P10275 1-920 T878A) with A878T
Text: as §1

AR = molecular target: T3, AR (Homo sapiens, UniProt P10275); assay: AR relative binding affinity (RBA)
T3 sequence (P10275 1-920): T1 sequence (P10275 1-920 T878A) with A878T

androgen receptor = assay: Whole-cell competition binding assay using 3H-R1881; conditions: whole cells; mutant AR and WT-AR

SMILES	MMTV transcription assay in CV-1 cells T877A (IC50 / inhibition) (T877A (LNCaP) AR)	MMTV transcription assay in CV-1 cells WT (IC50 / inhibition) (wild type AR)	AR antagonism, potency in words (structure-activity discussion) (T877A (LNCaP) AR)	also measured
c1ccc([C@@H]2[C@H](c3ccccc3)[C@@H](c3ccccn3)[C@H]2c2ccccn2)cc1 [DPM-14]	No inhibition	No inhibition No inhibition	–	–
CCc1cc([C@H]2[C@H](c3ccccc3)[C@H](c3cc(CC)nc(CC)n3)[C@H]2c2ccccc2)nc(CC)n1 [CB-50]	–	–	–	AR RBA (AR): 0.029%
CSc1cc([C@H]2[C@H](c3ccccc3)[C@H](c3cc(SC)nc(SC)n3)[C@H]2c2ccccc2)nc(SC)n1 [CB-34]	–	–	–	AR RBA (AR): 0.002%
Clc1cc([C@H]2[C@H](c3ccccc3)[C@H](c3cc(Cl)ncn3)[C@H]2c2ccccc2)ncn1 [DPM-26]	–	Incomplete inhibition at 10^−5	decreased potency	IC50 (T877A (LNCaP) AR): 9 µM
COc1cncc([C@@H]2[C@@H](c3ccccc3)[C@@H](c3ccccc3)[C@@H]2c2cncc(OC)n2)n1 [DPM-16]	Slight inhibition at 10^−5	No inhibition	decreased activity	–
COc1cc([C@H]2[C@H](c3ccccc3)[C@@H](c3cc(OC)nc(OC)n3)[C@H]2c2ccccc2)nc(OC)n1 [CB-31]	–	–	–	AR RBA (AR): 0.046%
COc1cc([C@H]2[C@@H](c3ccccc3)[C@H](c3cc(=O)[nH]c(=O)[nH]3)[C@@H]2c2ccccc2)nc(OC)n1 [CB-45]	–	–	–	AR RBA (AR): 0.087%
COc1nccc([C@H]2[C@H](c3ccccc3)[C@H](c3ccnc(OC)n3)[C@H]2c2ccccc2)n1 [DPM-5]	No inhibition No inhibition	No inhibition No inhibition	–	–
COc1cc([C@H]2[C@@H](c3ccccc3)[C@@H](c3cc(=O)[nH]c(=O)[nH]3)[C@@H]2c2ccccc2)nc(OC)n1 [CB-46]	–	–	–	AR RBA (AR): 0.065%
c1ccc([C@H]2[C@H](c3ccccn3)[C@H](c3ccccc3)[C@H]2c2ccccn2)cc1 [DMP-13]	–	No inhibition No inhibition	–	–
CCCNc1cc([C@H]2[C@H](c3ccccc3)[C@@H](c3cc(NCCC)nc(NCCC)n3)[C@H]2c2ccccc2)nc(NCCC)n1 [CB-1]	–	–	–	competition with 3H-R1881 for binding to AR (androgen receptor): compete with 3H-R1881
CC(C)CNc1cc([C@H]2[C@@H](c3ccccc3)[C@H](c3cc(NCC(C)C)nc(NCC(C)C)n3)[C@@H]2c2ccccc2)nc(NCc2cccc3ccccc23)n1 [CB-6]	–	–	–	competition with 3H-R1881 for binding to AR (androgen receptor): compete with 3H-R1881
CSc1cc([C@H]2[C@H](c3ccccc3)[C@@H](c3cc(SC)nc(SC)n3)[C@H]2c2ccccc2)nc(SC)n1 [CB-35]	–	–	–	AR RBA (AR): 0.027%
Clc1cc([C@@H]2[C@H](c3cc(Cl)nc(Cl)n3)[C@@H](c3cccs3)[C@H]2c2cccs2)nc(Cl)n1 [DMP-29]	Incomplete inhibition at 10^−5	Incomplete inhibition at 10^−5 Incomplete inhibition at 10^−5	retained parent compound potency	–
c1ccc([C@H]2[C@H](c3cnccn3)[C@H](c3ccccc3)[C@@H]2c2cnccn2)cc1 [DPM-11/20]	Mild inhibition at~10^−5	No inhibition No inhibition	–	–
COc1cncc([C@H]2[C@H](c3ccccc3)[C@@H](c3cncc(OC)n3)[C@H]2c2ccccc2)n1 [DPM-17]	–	–	decreased activity	–
Clc1cc([C@H]2[C@H](c3cccs3)[C@H](c3cc(Cl)nc(Cl)n3)[C@H]2c2cccs2)nc(Cl)n1 [DMP-28]	–	Incomplete inhibition at 10^−5 Incomplete inhibition at 10^−5	retained parent compound potency	IC50 (T877A (LNCaP) AR): 2.6 µM
COc1cc([C@H]2[C@H](c3ccsc3)[C@H](c3cc(OC)nc(OC)n3)[C@H]2c2ccsc2)nc(OC)n1 [DPM-8]	–	Incomplete inhibition at 10^−5 Incomplete inhibition at 10^−5	retained parent compound potency	–
COc1cc([C@H]2[C@H](c3ccc(Br)cc3)[C@@H](c3cc(OC)nc(OC)n3)[C@H]2c2ccc(Br)cc2)nc(OC)n1 [DMP-10]	No inhibition	No inhibition	inactive	–
COc1cncc([C@@H]2[C@@H](c3ccccc3)[C@@H](c3ccccc3)[C@@H]2c2cncc(OC)n2)n1 [DPM-15]	–	No inhibition	decreased activity	–
O=c1cc([C@H]2[C@H](c3ccccc3)[C@@H](c3cc(=O)[nH]c(=O)[nH]3)[C@H]2c2ccccc2)[nH]c(=O)[nH]1 [CB-48]	–	–	–	AR RBA (AR): 0.023%
c1ccc([C@@H]2[C@H](c3ccccc3)[C@@H](c3cnccn3)[C@H]2c2cnccn2)cc1 [DPM-12]	No inhibition	No inhibition No inhibition	–	–
COc1cncc([C@H]2[C@H](c3ccccc3)[C@H](c3cncc(OC)n3)[C@H]2c2ccccc2)n1 [DPM-18]	–	No inhibition	decreased activity	–
Clc1cc([C@H]2[C@H](c3ccc(-c4ccccc4)cc3)[C@H](c3cc(Cl)nc(Cl)n3)[C@H]2c2ccc(-c3ccccc3)cc2)nc(Cl)n1 [DPM-27]	No inhibition	No inhibition	inactive	–
COc1nccc([C@H]2[C@H](c3ccccc3)[C@@H](c3ccnc(OC)n3)[C@H]2c2ccccc2)n1 [DMP-6]	No inhibition No inhibition	No inhibition No inhibition	–	–
Cc1cc([C@H]2[C@H](c3ccccc3)[C@H](c3cc(C)nc(Cl)n3)[C@H]2c2ccccc2)nc(Cl)n1 [DPM-30]	–	–	comparable potency to 1	IC50 (T877A (LNCaP) AR): 2.89 µM; IC50 (wild type AR; values given in μM, read-out: MMTV transcription assay in CV-1 cells WT (IC50)): 17 µM
